Literature values in patent publication US20040115266A1, “Oral itraconazole formulations and methods of making the same” (priority 2004, published 2004).

0.1 N Hydrochloric acid solubility (0.1 N Hydrochloric acid): < 6 micrograms per milliliter
water solubility (water): less than 1 microgram per milliliter
SMILES: CCC(C)n1ncn(-c2ccc(N3CCN(c4ccc(OCC5COC(Cn6cncn6)(c6ccc(Cl)cc6Cl)O5)cc4)CC3)cc2)c1=O (single isomer, unassigned; (+)) [Itraconazole, (+)-cis-4-[4-[4-[4-[[2-(2,4-dichlorophenyl)-2-(1H-1,2,4-triazol-1-ylmethyl)-1,3-dioxolan-4-yl]methoxy]phenyl]-1-piperazinyl]phenyl]-2,4-dihydro-2-(1-methylpropyl)-3H-1,2,4-triazol-3-one]
